In patent US20170253601A1, “Substituted Pyrrolidine Compounds” (EPIZYME, INC., priority 2014, published 2017):

target: T1, human SMYD3 (Homo sapiens, UniProt Q9H7B4); assay: SMYD3 Biochemical Assay (3H-SAM, MEKK2 protein substrate, SPA); conditions: Table 1; average of n = 1 to n = 50; read-out: SMYD3 Biochem IC50
T1 construct: Expressed full-length human His-tagged SMYD3 protein was purified from cell paste; His6 (cleaved yes); TEV and SUMO cleavage sites (cleaved yes); made in house; host or cells: E. coli BL21 codonplus RIL
T1 sequence (Q9H7B4 1-428): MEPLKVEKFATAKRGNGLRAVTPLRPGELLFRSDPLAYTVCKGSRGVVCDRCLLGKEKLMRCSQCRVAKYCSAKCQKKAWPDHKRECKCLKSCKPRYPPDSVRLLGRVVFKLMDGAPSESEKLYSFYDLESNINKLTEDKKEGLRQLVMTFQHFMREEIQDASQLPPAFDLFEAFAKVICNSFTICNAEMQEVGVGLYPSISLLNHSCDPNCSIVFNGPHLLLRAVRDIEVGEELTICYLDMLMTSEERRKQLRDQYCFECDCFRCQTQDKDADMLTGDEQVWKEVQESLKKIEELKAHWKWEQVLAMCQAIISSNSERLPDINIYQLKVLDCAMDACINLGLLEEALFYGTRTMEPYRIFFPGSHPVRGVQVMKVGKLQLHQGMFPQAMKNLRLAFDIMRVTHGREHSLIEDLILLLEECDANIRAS
From the text: S-adenosylmethionine (SAM), S-adenosylhomocysteine (SAH), Tris, Tween20, dimethylsulfoxide (DMSO), bovine skin gelatin (BSG), and Tris(2-carboxyethyl)phosphine hydrochloride solution (TCEP) were purchased from Sigma-Aldrich at the highest level of purity possible. ^3H-SAM was purchase from American Radiolabeled Chemicals with a specific activity of 80 Ci/mmol. 384-well opaque white OptiPlates and SPA beads (Perkin Elmer, catalog # RPNQ0013) were purchased from PerkinElmer.
N-terminally GST-tagged MEKK2 (MAP3K2) protein corresponding to reference sequence AAF63496.3 was purchased from Life Technologies (catalog # PV4010). This protein was expressed in High Five insect cells and purified to >85% purity. Protein identity was confirmed by MS/MS analysis after proteolytic digestion. The protein sequence used was:
Full-length human SMYD3 isoform 1 (BAB86333) was inserted into a modified pET21b plasmid containing a His6 tag and TEV and SUMO cleavage sites. Because two common variants of SMYD3 exist in the population, site directed mutagenesis was subsequently performed to change amino acid 13 from an asparagine to a lysine, resulting in plasmid pEPZ533. A lysine at position 13 conforms to the more commonly occurring sequence (NP_001161212).
E. coli (BL21 codonplus RIL strain, Stratagene) were transformed with plasmid pEPZ553 by mixing competent cells and plasmid DNA and incubating on ice for 30 minutes followed by heat shock at 42° C. for 1 minute and cooling on ice for 2 minutes. Transformed cells were grown and selected on LB agar with 100 μg/mL ampicillin and 17 μg/mL chloramphenicol at 37° C. overnight. A single clone was used to inoculate 200 mL of LB medium with 100 μg/mL ampicillin and 17 μg/mL chloramphenicol and incubated at 37° C. on an orbital shaker at 180 rpm. Once in log growth, the culture was diluted 1:100 into 2 L of LB medium and grown until OD600 was about 0.3 after which the culture was incubated at 15° C. and 160 rpm. Once OD600 reached about 0.4, IPTG was added to a final concentration of 0.1 mM and the cells were grown overnight at 15° C. and 160 rpm. Cells were harvested by centrifugation at 8000 rpm, for 4 minutes at 4° C. and stored at −80° C. for purification.
Expressed full-length human His-tagged SMYD3 protein was purified from cell paste by Nickel affinity chromatography after equilibration of the resin with Buffer A (25 mM Tris, 200 mM NaCl, 5% glycerol, 5 mM β-mercaptoethanol, pH7.8). The column was washed with Buffer B (Buffer A plus 20 mM imidazole) and His-tagged SMYD3 was eluted with Buffer C (Buffer A plus 300 mM imidazole). The His tag, TEV and SUMO cleavage sites were removed generating native SMYD3 by addition of ULP1 protein at a ratio of 1:200 (ULP1:SMYD3). Imidazole was removed by dialysis overnight in Buffer A. The dialyzed solution was applied to a second Nickel column and the native SMYD3 protein was collected from the column flow-through. The flow-through was dialyzed in Buffer D (25 mM Tris, 5% glycerol, 5 mM β-mercaptoethanol, 50 mM NaCl, pH7.8) and ULP1 was removed using a Q sepharose fast flow column. SMYD3 was eluted in Buffer A and further purified using an S200 size-exclusion column equilibrated with Buffer A. SMYD3 was concentrated to 2 mg/mL with a final purity of 89%.
The assays were all performed in a buffer consisting of 25 mM Tris-Cl pH 8.0, 1 mM TCEP, 0.005% BSG, and 0.005% Tween 20, prepared on the day of use. Compounds in 100% DMSO (1 ul) were spotted into a 384-well white opaque OptiPlate using a Bravo automated liquid handling platform outfitted with a 384-channel head (Agilent Technologies). DMSO (1 ul) was added to Columns 11, 12, 23, 24, rows A-H for the maximum signal control and 1 ul of SAH, a known product and inhibitor of SMYD3, was added to columns 11, 12, 23, 24, rows I-P for the minimum signal control. A cocktail (40 ul) containing the SMYD3 enzyme was added by Multidrop Combi (Thermo-Fisher). […]

CN1CCC(NC(=O)c2cc(C3CC3)on2)C1 (stereo not shown) [compound 29, 5-cyclopropyl-N-(1-methylpyrrolidin-3-yl)isoxazole-3-carboxamide] and NCCCC(=O)N1CC[C@@H](NC(=O)c2cc(C3CC3)on2)C1 [compound 30, (R)-N-(1-(4-amino-butanoyl)pyrrolidin-3-yl)-5-cyclopropyl-isoxazole-3-carboxamide] cannot be ordered by IC50: 84 µM for the first, greater than 10 µM for the second.

Compared with N[C@H]1CC[C@H](C(=O)N2CC[C@@H](NC(=O)c3cc(C4CC4)on3)C2)CC1 [compound 31, N-((R)-1-((1r,4r)-4-aminocyclohexane-1-carbonyl)pyrrolidin-3-yl)-5-cyclopropyl-isoxazole-3-carboxamide], N[C@H]1CC[C@H](C(=O)N2CC[C@H](NC(=O)c3cc(C4CC4)on3)C2)CC1 [compound 33, N-((S)-1-((1r,4s)-4-aminocyclohexane-1-carbonyl)pyrrolidin-3-yl)-5-cyclopropyl-isoxazole-3-carboxamide] is lower in IC50: greater than 10 µM for the first, 3.25 µM for the second. The second is the more potent here.

Compared with NCCCC(=O)N1CC[C@H](NC(=O)c2cc(C3CC3)on2)C1 [compound 32, (S)-N-(1-(4-amino-butanoyl)pyrrolidin-3-yl)-5-cyclopropyl-isoxazole-3-carboxamide], NCCCS(=O)(=O)N1CC[C@@H](NC(=O)c2cc(C3CC3)on2)C1 [compound 34, (R)-N-(1-((3-amino-propyl)sulfonyl)pyrrolidin-3-yl)-5-cyclopropyl-isoxazole-3-carboxamide] is lower in IC50: greater than 10 µM for the first, 5.8 µM for the second. The second is the more potent here.

Compound NCCCS(=O)(=O)N1CC[C@H](NC(=O)c2cc(C3CC3)on2)C1 [compound 35, (S)-N-(1-((3-amino-propyl)sulfonyl)pyrrolidin-3-yl)-5-cyclopropyl-isoxazole-3-carboxamide] has an IC50 of 4.43 µM.
